The text below walks through data of patent US20090318514A1, “Novel Pharmaceutical Compositions” (priority 2006, published 2009).

One assay concerns the target T1, hTRβ (Homo sapiens, UniProt P10828).
T1 sequence (P10828 1-461): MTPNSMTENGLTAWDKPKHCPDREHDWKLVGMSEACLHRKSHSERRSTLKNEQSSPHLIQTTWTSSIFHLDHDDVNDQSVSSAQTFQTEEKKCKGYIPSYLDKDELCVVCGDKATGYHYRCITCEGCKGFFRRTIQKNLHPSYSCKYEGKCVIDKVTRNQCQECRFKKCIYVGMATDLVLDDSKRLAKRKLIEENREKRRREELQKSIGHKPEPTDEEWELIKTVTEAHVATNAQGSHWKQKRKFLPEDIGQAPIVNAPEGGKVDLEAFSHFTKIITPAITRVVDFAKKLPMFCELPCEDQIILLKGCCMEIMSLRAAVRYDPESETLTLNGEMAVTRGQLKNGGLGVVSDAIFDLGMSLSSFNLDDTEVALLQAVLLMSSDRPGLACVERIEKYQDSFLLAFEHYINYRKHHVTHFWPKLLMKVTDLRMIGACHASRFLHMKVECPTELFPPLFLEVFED
Kind of assay: TR competition binding assay with filter separation. As to conditions: competition with 125I-T3 tracer, full length hTRβ; read-out: TR-β IC50. As to the method: TR Competition Binding Assay with Filter Separation
Compounds are tested for their ability to compete with the tracer ^125I-T3 for binding to full length hTRα and hTRβ. Receptor extracts and tracer are diluted in assay buffer (17 mM K2HPO4, 3 mM KH2PO4, 400 mM KCl, 1 mM MgCl2, 0.5 mM EDTA and 8.7% glycerol). ^125I-T3 is diluted to a final concentration of 0.2 nM and receptor is diluted to reach a final count in Trilux Microbeta of approximately 10000 ccpm. Compounds are typically serially diluted in DMSO from DMSO stock solutions of 10 mM. To 96 well microtiter plates are 100 μl tracer, 4 μl test compound dilution series and 100 μl receptor dilution added. The assay plates are incubated at +4° C. overnight (app. 16 h incubation). Receptor bound and free tracer are separated over a glass fiber filter (FILTERMAT B, PerkinElmer) on a Tomtec Cellharvester with 18 mM K2HPO4, 2 mM KH2PO4, 0.5 mM EDTA wash buffer. The filters are dried at 60° C. for 1 h and then merged with a scintillant wax (MELTILEX, PerkinElmer) on a Wallac Microsealer before measuring in a Trilux Microbeta. IC50s, the concentration test compound needed to decrease tracer binding by 50 percent, are generated via analysis of data in XLfit version 2.0 or later with a four parameter logistic model.

For a further assay, the target named is T2, CHO/hThRβ1 (Homo sapiens, UniProt P10828).
T2 construct: The cDNAs encoding the full length human ThRα1 and ThRβ1 were cloned; expressed in transfected cells
T2 sequence (P10828 1-461): T1 sequence (P10828 1-461)
Kind of assay: Reporter cell line (TRAF) assay, agonist activity. It counts as cell-based. The following applies: CHO/hThRβ1 reporter cells, alkaline phosphatase readout after 48 hours. The source says: Vector Constructs, Generation of Reporter Cell Lines (TRAF), and Assay Procedure.
The cDNAs encoding the full length human ThRα1 and ThRβ1 were cloned in the mammalian expression vector pMT-hGH. The pDR4-ALP reporter vector contains one copy of the direct repeat sequence AGGTCA nnnnAGGTCA, fused upstream of the core promoter sequences of the mouse mammary tumor virus long terminal repeat (MMTV), replacing the glucocorticoid response elements. The DR4-MMTV promoter fragment was then cloned in the 5′ end of the cDNA encoding human placental alkaline phosphatase (ALP), followed in the 3′-end by the polyA-signal sequence of the human growth hormone gene. Chinese hamster ovary (CHO) K1 cells (ATCC No. CCL 61) were transfected in two steps, first with the receptor expression vectors pMT-hThRα1 and pMT-THRβ1, respectively, and the drug resistance vector pSV2-Neo, and in the second step, with the reporter vector pDR4-ALP and the drug resistance vector pKSV-Hyg. Individual drug resistant clones were isolated and selected based on T3 inducibility. One stable reporter cell clone each of CHO/hThRα1 and CHO/hThRβ1 were chosen for further study in response to various thyroid hormone agonists.
CHO/hThRα1 and CHO/hThRβ1 were seeded in growth medium (Coon's/F12, 10% L-3,5,3′-triiodothyronine and L-thyroxine depleted FCS, 2 mM L-glutamine) in 96-well plates at 20×10^3 cells per well. After 24 hour incubation at 37° C. in humidified chambers, at 5% CO2, conditioned medium was replaced by induction medium (OptiMEM, 2 mM L-glutamine, 50 μm/mL gentamycin) and cells were exposed to the test compounds at serial dilutions, at final DMSO concentration of 0.5% , or to serial dilution of T3 (positive control), to assess agonist activity of test compounds.
After 48 hours incubation at 37° C. in humidified chambers at 5% CO2 the level of alkaline phosphatase expressed and secreted into the cell culture medium was analyzed by chemiluminescence on MicroBeta Trilux.
The assay procedure described above was carried out for the compounds of Examples 1 to 40, 43-44 and 47-48.

`CC(C)Cc1nc2cc(Oc3c(Br)cc(CC(F)C(=O)O)cc3Br)ccc2[nH]1` (racemic) [Example 10, 3-(3,5-dibromo-4-{[2-isobutyl-1H-benzimidazol-5-yl]oxy}phenyl)-2-fluoropropanoic acid]: at hTRβ, the IC50 – broadly, the midpoint of a concentration-inhibition curve – stood at 0.14 nM. Further, at CHO/hThRβ1, the β % agonism was 100%.

In the case of `O=C(O)CCCc1cc(Br)c(Oc2ccc3[nH]c(-c4ccc(F)cc4)nc3c2)c(Br)c1` [Example 5, 4-(3,5-dibromo-4-{[2-(4-fluorophenyl)-1H-benzimidazol-5-yl]oxy}phenyl)butanoic acid], the IC50 at hTRβ came out at 5.5 nM. At CHO/hThRβ1, the β % agonism was found to be 91%.

As to `Cc1cccc(-c2nc3cc(Oc4c(Br)cc(CCC(=O)O)cc4Br)ccc3[nH]2)c1` [Example 11, 3-(3,5-dibromo-4-{[2-(3-methylphenyl)-1H-benzimidazol-5-yl]oxy}phenyl)propanoic acid], on hTRβ, the half-maximal inhibitory concentration (IC50) was determined as 2.4 nM. At CHO/hThRβ1, the β % agonism is reported as 99%.

`CC(C)(C)Cc1nc2cc(Oc3c(Br)cc(OCC(=O)O)cc3Br)ccc2[nH]1` [Example 15, {3,5-dibromo-4-{[2-(2,2-dimethylpropyl)-1H-benzimidazol-5-yl)oxy]phenoxy}acetic acid]: the IC50 on hTRβ came to 1.7 nM. The compound further had a β % agonism on CHO/hThRβ1 of 70%.

`CCCc1nc2cc(Oc3c(Br)cc(OCC(=O)O)cc3Br)ccc2[nH]1` [Example 17]: on hTRβ, the IC50 was determined as 7.5 nM. In addition, the β % agonism on CHO/hThRβ1 amounted to 70%.

With `Cc1nc(-c2nc3cc(Oc4c(Br)cc(CC(F)C(=O)O)cc4Br)ccc3[nH]2)c(C)o1` (stereo not drawn) [Example 32, 3-{3,5-Dibromo-4-[2-(2,5-dimethyl-oxazol4-yl)-1H-benzoimidazol-5-yloxy]-phenyl}-2-fluoropropionic acid], the IC50 at hTRβ is 0.49 nM. This compound also yielded a β % agonism at CHO/hThRβ1 of 75%.
